The text below walks through data of patent publication US5936063A, “Antimicrobial peptide isolated from Bufo bufo gargarizans” (priority 1998, dated 1999).

One experiment relates to Salmonella typhimurium. Kind of experiment: Minimal inhibitory concentration test. Type of experiment: cell-based. Particulars: Gram-negative bacteria. How it is done: (§1) Antimicrobial activity of the peptide of the invention was measured by its minimal inhibitory concentration against various test microorganisms (see: Table 1).
(§2) On the other hand, comparison of the antimicrobial activity of the peptide with a commercially available Magainin 2 (Sigma, USA) was followed and summarized in Table 2 below.

A further experiment relates to Staphylococcus aureus. As to the kind of experiment: Minimal inhibitory concentration test. The format is cell-based. Particulars: Gram-positive bacteria. How it is done:
as §1, §2

With Magainin 2, the Minimal inhibitory concentration amounted to 25 µg/µL in the experiment with Salmonella typhimurium and 13 µg/µL with Staphylococcus aureus.
